What was measured:
PLK1 [1] = target: T1, PLK1 (Homo sapiens, UniProt P53350); assay: Cellular PLK1 assay in K562 cells overexpressing CDC25C; format: cell-based; design: endogenous in cells; host or cells: K562 (human chronic myelogenous leukemia) overexpressing CDC25C, nocodazole-arrested; conditions: nocodazole arrested, cdc25c p-Ser198 readout
Experimental: Inhibition of PLK1 was measured by quantifying phosphorylation of PLK1 substrates using chemiluminescent and fluorogenic probes. The protocols for these assays are provided below.
1. Culturing of K562 Cells
Human chronic myelogenous leukemia K562 cells (American Tissue Culture Collection) overexpressing CDC25C, were grown in Growth Medium having the following composition: Iscove Dulbecco's Modified Eagle's Medium (“Iscove DMEM”, Mediatech/Cellgro, Cat. #10-013-CV), 10% Fetal Bovine Serum (“FBS”, SAFC Biosciences, Cat. #12106-500M), and 1% penicillin/streptomycin (“pen-strep”, Mediatech/Cellgro, Cat. #30-002-CI). The cells were plated in 96 well round bottom tissue culture plates (Fisher, Costar* Cell Culture plates, Cat. #07-200-95) at 100,000 cells per 50 μL of Growth Medium per well. Nocodazole (Sigma, Cat. # M1404) was added to the growth media to arrest the cells in the G2 or M phase, at 333 nM concentration. The cells were incubated with nocodazole for 18 hours at 37° C. prior to addition of tested compounds.
2. Treatment of Cells with the Tested Compounds
Solutions of tested compounds in DMSO at different concentrations were prepared using serial dilutions. Each compound was tested at 8 concentration points, 10 μM, 3.3 μM, 1.11 μM, 0.37 μM, 0.12 μM, 0.04 μM, 0.014 μM, 0.005 μM, duplicate replicates.
Two controls were performed: “DMSO alone” control in which nocodazole and DMSO were present but no compounds were added, and “nocodazole alone” control, in which only nocodazole was present, but neither DMSO nor compounds were added.
The solutions of compounds were prepared by diluting 10 mM compound 1:1 in DMSO (5 μL 10 mM compound and 5 μL DMSO), followed by 1:3 serial dilutions of compound in DMSO performed by diluting 3 μL of higher concentration compound solution serially into 6 μL DMSO to give 3-fold dilutions. Next, 3 μL of each compound solution at each concentration was transferred to 750 μL of Growth Medium. In “DMSO alone” control 3 μL of DMSO alone was added to 750 μL of Growth Medium.
After the diluted compounds were mixed well in the Growth Medium, 50 μL of each compound solution in DMSO/Growth Medium was transferred to each well of the 96-plate containing cells in 50 μL of Growth Medium/Nocodazole.
The cells and compounds were incubated for 120 minutes at 37° C., in an atmosphere containing 5% CO2.
3. Fixation and Permeabilization of the Cells
After the cells were incubated with compounds, the cells were spun down at 1,000 rpm for 5 minutes at 4° C. and supernatants were removed by flicking the plates. Cells were then washed with 200 μl of ice cold PBS, spun down again and supernatants removed. Cells were then fixed and permeabilized by addition of 100 μL/well of Fixation and Permeabilization Solution (1× buffer provided in BD Biosciences Cytofix/Cytoperm™ Fixation/Permeabilization kit, Cat. #554714) and incubation for 20 minutes at room temperature. The fixative was then removed by centrifugation (5 minutes at 2,000 rpm), and plates were flicked to remove the fixative and washed twice, each time with 200 μL/well BD Perm/Wash buffer (10× concentrate provided in BD Biosciences Cytofix/Cytoperm™ Fixation/Permeabilization kit, Cat. #554714, 1× buffer prepared by dilution in distilled H2O).
Cells were spun down at 1,000 rpm for 5 minutes at 4° C. Supernatants were removed by flicking the plates. A solution of a primary antibody specific for cdc25cp-Ser198 was prepared by diluting Rabbit cdc25c (Ser198) antibody (Cell Signaling, #9529L) 1:50 in a Fluorescence Activated Cell Sorting (“FACS”) Buffer (2% FBS in PBS). The cell pellets were resuspended in 50 μL of the primary antibody solution. 50 μL of FACS buffer was added to unstained controls. Staining was allowed to proceed overnight at room temperature.
The plates were then washed by addition of 200 μL of FACS Buffer to each well, were centrifuged and the supernatant was removed. […]

PLK1 [2] = target: T1, PLK1; assay: In vitro PLK1 ELISA assay (biochemical); design: purchased Cell Signalling 7728
In short: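 Commercial PLK1 phosphorylates neutravidin-captured biotinylated CHK2 peptide for 45 min at room temperature in HEPES pH 7.2 with Mg2+/Mn2+/DTT, compounds at 10 μM to 0.005 μM. Phospho-CHK2(T68) antibody plus HRP secondary gives chemiluminescent read-out used for IC50.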

[3] = ELISA, CHK2-derived peptide substrate, read-out: PLK1 IC50 (μM) biochemical assay
[4] = read-out: IC50 in biochemical in vitro PLK1 ELISA assay (less than 10 μM)
[5] = read-out: IC50 in biochemical ELISA assay (less than 0.01 μM)

T1 sequence (P53350 whole entry): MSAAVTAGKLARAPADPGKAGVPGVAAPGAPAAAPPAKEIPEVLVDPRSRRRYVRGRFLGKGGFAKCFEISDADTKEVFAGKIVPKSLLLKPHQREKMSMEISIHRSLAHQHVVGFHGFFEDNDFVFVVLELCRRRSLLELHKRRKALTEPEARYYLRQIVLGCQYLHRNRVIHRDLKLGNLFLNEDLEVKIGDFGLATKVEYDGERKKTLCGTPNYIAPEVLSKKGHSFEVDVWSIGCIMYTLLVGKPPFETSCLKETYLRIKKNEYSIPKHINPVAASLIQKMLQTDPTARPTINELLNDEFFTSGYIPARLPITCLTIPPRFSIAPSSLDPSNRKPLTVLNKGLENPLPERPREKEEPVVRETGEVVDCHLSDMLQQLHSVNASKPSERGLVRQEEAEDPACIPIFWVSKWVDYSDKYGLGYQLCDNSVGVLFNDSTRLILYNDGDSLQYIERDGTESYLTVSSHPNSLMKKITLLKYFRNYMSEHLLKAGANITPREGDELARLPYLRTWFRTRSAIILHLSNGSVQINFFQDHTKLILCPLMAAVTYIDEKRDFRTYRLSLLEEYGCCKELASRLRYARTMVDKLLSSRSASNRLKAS

Row | Structure (SMILES) | IC50 (PLK1 [1]) [µM] | IC50 (PLK1 [2]; [3]) [µM] | IC50 (PLK1 [2]; [4]) [µM] | IC50 (PLK1 [2]; [5]) [µM]
1 | CCCN1C(=O)COc2ccc(Nc3nc(Nc4ccc(N5CC6CC5CN6S(C)(=O)=O)c(C)c4)ncc3C)nc21 (stereo not shown) [compound 32, 6-(5-methyl-2-(3-methyl-4-(5-(methylsulfonyl)-2,5-diazabicyclo[2.2.1]heptan-2-yl)phenylamino)pyrimidin-4-ylamino)-4-propyl-2H-pyrido[3,2-b][1,4]oxazin-3(4H)-one] | 0.5 to 5 | 0.5 to 5 | < 10 | –
2 | CCCN1CCOc2ccc(Nc3nc(Nc4ccc(N5CC6CC5CN6S(C)(=O)=O)c(C)c4)ncc3C)nc21 (stereo not shown) [compound 33, 5-methyl-N2-(3-methyl-4-(5-(methylsulfonyl)-2,5-diazabicyclo[2.2.1]heptan-2-yl)phenyl)-N4-(4-propyl-3,4-dihydro-2H-pyrido[3,2-b][1,4]oxazin-6-yl)pyrimidine-2,4-diamine] | 0.5 to 5 | < 0.5 | < 10 | –
3 | CN1CCN(c2ccc(C3CC3)c(Nc3ncc(F)c(Nc4ccc5c(n4)NCCO5)n3)c2)CC1 [compound 34, N2-(2-cyclopropyl-5-(4-methylpiperazin-1-yl)phenyl)-N4-(3,4-dihydro-2H-pyrido[3,2-b][1,4]oxazin-6-yl)-5-fluoropyrimidine-2,4-diamine] | < 0.5 | < 0.5 | < 10 | –
4 | CCCN1C(=O)COc2ccc(Nc3nc(Nc4ccc(N5CC6CC5CN6C(C)=O)c(C)c4)ncc3F)nc21 (stereo not shown) [compound 35, 6-(2-(4-(5-acetyl-2,5-diazabicyclo[2.2.1]heptan-2-yl)-3-methylphenylamino)-5-fluoropyrimidin-4-ylamino)-4-propyl-2H-pyrido[3,2-b][1,4]oxazin-3(4H)-one] | 0.5 to 5 | < 0.5 | < 10 | –
5 | Cc1ccc(Nc2ncc(F)c(Nc3ccc4c(n3)NCCO4)n2)cc1N1CC2CC1CN2C (stereo not shown) [compound 36, N4-(3,4-dihydro-2H-pyrido[3,2-b][1,4]oxazin-6-yl)-5-fluoro-N2-(4-methyl-3-(5-methyl-2,5-diazabicyclo[2.2.1]heptan-2-yl)phenyl)pyrimidine-2,4-diamine] | 0.5 to 5 | < 0.5 | < 10 | < 0.01
6 | CCCN1CCOc2ccc(Nc3nc(Nc4ccc(N5CC6CC5CN6C(C)=O)c(C)c4)ncc3F)nc21 (stereo not shown) [compound 37, 1-(5-(4-(5-fluoro-4-(4-propyl-3,4-dihydro-2H-pyrido[3,2-b][1,4]oxazin-6-ylamino)pyrimidin-2-ylamino)-2-methyl-phenyl)-2,5-diaza-bicyclo[2.2.1]heptan-2-yl)ethanone] | 0.5 to 5 | 0.5 to 5 | < 10 | –
7 | CCCN1C(=O)COc2ccc(Nc3nc(Nc4ccc(N5CC6CC5CN6C(C)=O)c(C)c4)ncc3C)nc21 (stereo not shown) [compound 38, 6-(2-(4-(5-acetyl-2,5-diazabicyclo[2.2.1]heptan-2-yl)-3-methylphenyl-amino)-5-methyl-pyrimidin-4-ylamino)-4-propyl-2H-pyrido[3,2-b][1,4]oxazin-3(4H)-one] | 0.5 to 5 | < 0.5 | < 10 | –
8 | CCCN1CCOc2ccc(Nc3nc(Nc4ccc(N5CC6CC5CN6C(C)=O)c(C)c4)ncc3C)nc21 (stereo not shown) [compound 39, 1-(5-(2-methyl-4-(5-methyl-4-(4-propyl-3,4-dihydro-2H-pyrido[3,2-b][1,4]oxazin-6-ylamino)pyrimidin-2-ylamino)phenyl)-2,5-diazabicyclo[2.2.1]heptan-2-yl)ethanone] | 0.5 to 5 | 0.5 to 5 | < 10 | –
9 | CN1CCN(c2cc(Nc3ncc(F)c(Nc4ccc5c(n4)NC(=O)CO5)n3)cc(OC(C)(C)C)c2)CC1 [compound 47, 6-(2-(3-tert-butoxy-5-(4-methylpiperazin-1-yl)phenylamino)-5-fluoro-pyrimidin-4-ylamino)-2H-pyrido[3,2-b][1,4]oxazin-3(4H)-one] | < 0.5 | < 0.5 | < 10 | –

Continued, values first:

Row | IC50 (PLK1 [1]) [µM] | IC50 (PLK1 [2]; [3]) [µM] | IC50 (PLK1 [2]; [4]) [µM] | IC50 (PLK1 [2]; [5]) [µM] | Structure (SMILES)
10 | < 0.5 | < 0.5 | < 10 | – | CN1CC2CC1CN2c1cccc(Nc2ncc(F)c(Nc3ccc4c(n3)NC(=O)CO4)n2)c1 (stereo not shown) [compound 41, 6-(5-fluoro-2-(3-(5-methyl-2,5-diaza-bicyclo[2.2.1]heptan-2-yl)phenylamino)pyrimidin-4-ylamino)-2H-pyrido[3,2-b][1,4]oxazin-3(4H)-one]
11 | < 0.5 | < 0.5 | < 10 | < 0.01 | CN1CC2CC1CN2c1cccc(Nc2ncc(F)c(Nc3ccc4c(n3)NCCO4)n2)c1 (stereo not shown) [compound 42, N4-(3,4-dihydro-2H-pyrido[3,2-b][1,4]oxazin-6-yl)-5-fluoro-N2-(3-(5-methyl-2,5-diazabicyclo[2.2.1]heptan-2-yl)phenyl)pyrimidine-2,4-diamine]
12 | < 0.5 | < 0.5 | < 10 | – | CC(C)c1ccc(N2CCN(C)CC2)cc1Nc1ncc(F)c(Nc2ccc3c(n2)NC(=O)CO3)n1 [compound 43, 6-(5-fluoro-2-(2-isopropyl-5-(4-methylpiperazin-1-yl)phenylamino)pyrimidin-4-ylamnino)-2H-pyrido[3,2-b][1,4]oxazin-3(4H)-one]
13 | ≥ 10 | < 0.5 | < 10 | – | CC(C)c1cc(Nc2ncc(F)c(Nc3ccc4c(n3)NC(=O)CO4)n2)cc(N2CCN(C)CC2)c1 [compound 44, 6-(5-fluoro-2-(3-isopropyl-5-(4-methylpiperazin-1-yl)phenylamino)pyrimidin-4-ylamino)-2H-pyrido[3,2-b][1,4]oxazin-3(4H)-one]
14 | < 0.5 | < 0.5 | < 10 | – | CCOc1ccc(N2CCN(C)CC2)cc1Nc1ncc(F)c(Nc2ccc3c(n2)NCCO3)n1 [compound 45, N4-(3,4-dihydro-2H-pyrido[3,2-b][1,4]oxazin-6-yl)-N2-(2-ethoxy-5-(4-methylpiperazin-1-yl)phenyl)-5-fluoro-pyrimidine-2,4-diamine]
15 | 0.5 to 5 | < 0.5 | < 10 | – | CC(C)c1cc(Nc2ncc(F)c(Nc3ccc4c(n3)NCCO4)n2)cc(N2CCN(C)CC2)c1 [compound 46, N4-(3,4-dihydro-2H-pyrido[3,2-b][1,4]oxazin-6-yl)-5-fluoro-N2-(3-isopropyl-5-(4-methylpiperazin-1-yl)phenyl)pyrimidine-2,4-diamine]
16 | < 0.5 | < 0.5 | < 10 | < 0.01 | CN1CCN(c2cc(Nc3ncc(F)c(Nc4ccc5c(n4)NCCO5)n3)cc(C3CC3)c2)CC1 [compound 48, N2-(3-cyclopropyl-5-(4-methylpiperazin-1-yl)phenyl)-N4-(3,4-dihydro-2H-pyrido[3,2-b][1,4]oxazin-6-yl)-5-fluoropyrimidine-2,4-diamine]
17 | < 0.5 | < 0.5 | < 10 | < 0.01 | CCOc1ccc(N2CCN(C)CC2)cc1Nc1ncc(F)c(Nc2ccc3c(n2)NC(=O)CO3)n1 [compound 49, 6-(2-(2-ethoxy-5-(4-methylpiperazin-1-yl)phenylamino)-5-fluoro-pyrimidin-4-ylamino)-2H-pyrido[3,2-b][1,4]oxazin-3(4H)-one]
